Measurements taken from patent US20220168296A1, “METHODS OF TREATING CANCER WITH FARNESYLTRANSFERASE INHIBITORS” (Kura Oncology, Inc., priority 2019, published 2022).

Experiments:
Assay type in all cases: in vivo, human
Hodgkin Lymphoma (HL) = assay: Phase II clinical study with tipifarnib in relapsed or refractory lymphoma patients: HL subjects; details: among 6 HL patients with pre-treatment tumor samples; 300 mg orally bid days 1-21 of 28 day cycles
Experimental: A Phase II clinical study with tipifarnib was performed in relapsed or refractory non-Hodgkin's lymphoma patients (N=93), wherein the types of non-Hodgkin's lymphoma included Diffuse Large B Cell Lymphoma (DLBCL) and Mycosis Fungoides (MF). Eligible patients received 300 mg tipifarnib as a single agent orally, twice a day (bid) on days 1-21 of 28 day cycles. Courses were repeated every 28 days in the absence of disease progression or unacceptable toxicity. Primary objective of assessing objective tumor response, in terms of Objective Response Rate (ORR), was determined using the International Workshop Criteria (IWC). […]

[1] = system: relapsed or refractory Diffuse Large B Cell Lymphoma (DLBCL); assay: Phase II clinical study with tipifarnib in relapsed or refractory non-Hodgkin's lymphoma patients: DLBCL subjects; set-up: key to Best Response: a partial response (PR); Stable disease (SD) can be defined as any response not meeting CR, PR, HI, or PD criteria; Progressive disease (PD) can be defined as either >50% increase in lymph node or circulating blast % from baseline, or new appearance of circulating blasts (on at least 2 consecutive occasions)
Experimental: A Phase II clinical study with tipifarnib was performed in relapsed or refractory non-Hodgkin's lymphoma patients (N=93), wherein the types of non-Hodgkin's lymphoma included Diffuse Large B Cell Lymphoma (DLBCL) and Mycosis Fungoides (MF). Eligible patients received 300 mg tipifarnib as a single agent orally, twice a day (bid) on days 1-21 of 28 day cycles. Courses were repeated every 28 days in the absence of disease progression or unacceptable toxicity. Primary objective of assessing objective tumor response, in terms of Objective Response Rate (ORR), was determined using the International Workshop Criteria (IWC).
Exclusion Criteria for this clinical study include: (a) pregnant women; (b) breastfeeding women; (c) men or women of childbearing potential or their sexual partners who are unwilling to employ adequate contraception (condoms, diaphragm, birth control pills, injections, intrauterine device [IUD], surgical sterilization, subcutaneous implants, or abstinence, etc.); (d) life-threatening illness (unrelated to tumor); (e) ongoing radiation therapy or radiation therapy ≤3 weeks prior to study registration unless the acute side effects associated with such therapy are resolved; (f) therapy with myelosuppressive chemotherapy, cytotoxic chemotherapy, or biologic therapy ≤3 weeks (6 weeks for nitrosourea or mitomycin C) or corticosteroids ≤2 weeks, prior to starting R11577; patients may be on corticosteroids or tapering off them up until the day they start R11577 as long as it is clear that they are not having a tumor response to the steroids or that the steroids would confuse the interpretation of response to R11577; patients may be receiving stable (not increased within the last month) chronic doses of corticosteroids with a maximum dose of 20 mg of prednisone per day if they are being given for disorders other than lymphoma such as rheumatoid arthritis, polymyalgia rheumatica, adrenal insufficiency, or intractable symptoms of lymphoma; (g) peripheral neuropathy ≥grade 3; (h) serious non-malignant disease such as active infection or other condition which in the opinion of the investigator would compromise other protocol objectives; (i) presence of central nervous system (CNS) lymphoma; (j) other active malignancies; (k) once a patient begins FTI (tipifarnib) treatment, the addition of other cancer treatment will confound the assessment of efficacy and therefore is not allowed; this restriction precludes the addition of cytotoxic, immunologic agents, radiotherapy, or an increase in corticosteroid dose while the patient is in the treatment phase of this protocol; (l) known to be human immunodeficiency virus (HIV) positive; HIV testing is not required but should be done if clinically indicated; HIV patients are excluded because of concerns regarding excess risk of complications of immunosuppressive therapy regimens; and (m) known allergy to imidazole drugs such as clotrimazole, ketoconazole, miconazole, econazole, fenticonazole, sulconazole, tioconazole, or terconazole.
Pre-treatment tumor samples and best response data were obtained from 20 patients (N=20): 6 Diffuse Large B Cell Lymphoma (DLBCL), 6 Hodgkin Lymphoma (HL), 4 Follicular Lymphoma (FL), 1 Marginal Zone B Cell Lymphoma, 1 PTCL NOS, and 2 Mycosis Fungoides (MF). Within these 20 patients, the following objective responses were identified: 3 PRs and 1 SD were reported in DLBCL, 1PR in HL, and 2PRs in MF.
CXCL12, CXCR4, CXCR7, and PRICLKE2, mRNA expression data were generated by RNASeq and expressed as RNA Seq RSEM.

Mycosis Fungoides (MF) = assay: Phase II clinical study with tipifarnib in relapsed or refractory non-Hodgkin's lymphoma patients: MF subjects
Experimental: A Phase II clinical study with tipifarnib was performed in relapsed or refractory non-Hodgkin's lymphoma patients (N=93), wherein the types of non-Hodgkin's lymphoma included Diffuse Large B Cell Lymphoma (DLBCL) and Mycosis Fungoides (MF). Eligible patients received 300 mg tipifarnib as a single agent orally, twice a day (bid) on days 1-21 of 28 day cycles. Courses were repeated every 28 days in the absence of disease progression or unacceptable toxicity. Primary objective of assessing objective tumor response, in terms of Objective Response Rate (ORR), was determined using the International Workshop Criteria (IWC). […] CXCL12, CXCR4, CXCR7, and […]2, mRNA expression data were generated by RNASeq and expressed as RNA Seq RSEM.

[2] = among 6 DLBCL patients with pre-treatment tumor samples, 300 mg orally bid days 1-21 of 28 day cycles
[3] = high PRICKLE2 and CXCL12/CXCR4 ratio greater than about 1/10 (about 0.10), out of 6 subjects (FIG. 2B)
[4] = low PRICKLE2 and lower CXCL12/CXCR4 ratio, cut-off about 1/10 (about 0.10), out of 6 subjects (FIG. 2B)
[5] = low PRICKLE2 and lower CXCL12/CXCR4 ratio, cut-off about 3/20 (about 0.15), out of 6 subjects (FIG. 2B)
[6] = low pre-treatment CXCL12 expression levels, out of 6 subjects (FIG. 1A)
[7] = low pre-treatment PRICKLE2 expression levels, out of 6 subjects (FIG. 2A)

Structure (SMILES): Cn1cncc1[C@@](N)(c1ccc(Cl)cc1)c1ccc2c(c1)c(-c1cccc(Cl)c1)cc(=O)n2C [tipifarnib]
- Number of PR (objective responses) (Hodgkin Lymphoma (HL)): 1
- Best Response ([1]; DLBCL subject with pre-treatment tumor CXCL12/CXCR7 ratio 1.4, 300 mg orally bid days 1-21 of 28 day cycles): PD
- Best Response ([1]; DLBCL subject with pre-treatment tumor CXCL12/CXCR7 ratio 3.5, 300 mg orally bid days 1-21 of 28 day cycles): PD
- Best Response ([1]; DLBCL subject with pre-treatment tumor CXCL12/CXCR7 ratio 3.7, 300 mg orally bid days 1-21 of 28 day cycles): SD
- Best Response ([1]; DLBCL subject with pre-treatment tumor CXCL12/CXCR7 ratio 6.6, 300 mg orally bid days 1-21 of 28 day cycles): PR
- Best Response ([1]; DLBCL subject with pre-treatment tumor CXCL12/CXCR7 ratio 30.8, 300 mg orally bid days 1-21 of 28 day cycles): PR
- Best Response ([1]; DLBCL subject with pre-treatment tumor CXCL12/CXCR7 ratio 66.8, 300 mg orally bid days 1-21 of 28 day cycles): PR
- Best Response ([1]; Patient 35, DLBCL, pre-treatment tumor CXCL12/CXCR4 ratio 1.280, 300 mg orally bid days 1-21 of 28 day cycles): PR
- Best Response ([1]; Patient 38, DLBCL, pre-treatment tumor CXCL12/CXCR4 ratio 0.505, 300 mg orally bid days 1-21 of 28 day cycles): PR
- Best Response ([1]; Patient 39, DLBCL, pre-treatment tumor CXCL12/CXCR4 ratio 0.179, 300 mg orally bid days 1-21 of 28 day cycles): PR
- Best Response ([1]; Patient 42, DLBCL, pre-treatment tumor CXCL12/CXCR4 ratio 0.122, 300 mg orally bid days 1-21 of 28 day cycles): SD
- Best Response ([1]; Patient 43, DLBCL, pre-treatment tumor CXCL12/CXCR4 ratio 0.050, 300 mg orally bid days 1-21 of 28 day cycles): PD
- Best Response ([1]; Patient 44, DLBCL, pre-treatment tumor CXCL12/CXCR4 ratio 0.012, 300 mg orally bid days 1-21 of 28 day cycles): PD
- Number of PRs (objective responses) [1, 2]: 3
- Number of SD (objective responses) [1, 2]: 1
- Number of PR responses [1, 3]: 3
- Number of SD responses [1, 3]: 1
- Number of PR responses ([1]; high PRICKLE2 and CXCL12/CXCR4 ratio greater than about 3/20 (about 0.15), out of 6 subjects (FIG. 2B)): 3
- Number of PR responses ([1]; high pre-treatment CXCL12 expression levels, out of 6 subjects (FIG. 1A)): 3
- Number of PR responses ([1]; high pre-treatment PRICKLE2 expression levels, out of 6 subjects (FIG. 2A)): 3
- Number of PD responses [1, 4]: 2
- Number of PR responses [1, 4]: 0
- Number of SD responses [1, 4]: 0
- Number of PD responses [1, 5]: 2
- Number of PR responses [1, 5]: 0
- Number of SD responses [1, 5]: 1
- Number of PD responses [1, 6]: 2
- Number of PR responses [1, 6]: 0
- Number of SD responses [1, 6]: 1
- Number of PD responses [1, 7]: 2
- Number of PR responses [1, 7]: 0
- Number of SD responses [1, 7]: 1
- Number of PR responses (Mycosis Fungoides (MF); MF patients having high pre-treatment CXCL12 expression levels, out of 2 subjects): 2
- Number of PR responses (Mycosis Fungoides (MF); MF, low pre-treatment CXCL12 expression levels, out of 2 subjects): 0
- Number of PRs (objective responses) (Mycosis Fungoides (MF); among 2 MF patients with pre-treatment tumor samples, 300 mg orally bid days 1-21 of 28 day cycles): 2
- Number of PRs (Mycosis Fungoides (MF); two MF subjects with CXCL12/CXCR4 expression ratio of 0.6 and 2.0, out of 2 subjects): 2
